Reference: PubChem BioAssay (NCI)
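Briefly, cells in 96-well plates were exposed to five compound concentrations for 48 h, and endpoints were estimated by linear interpolation. TGI: concentration producing complete growth inhibition.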

Assays:
Assay in all cases: growth of human tumour cells (NCI), 48 h
UACC-62 melanoma = test system: UACC-62 melanoma
CCRF-CEM leukemia = test system: CCRF-CEM leukemia
UO-31 renal = test system: UO-31 renal
SF-295 CNS = test system: SF-295 CNS
LOX IMVI melanoma = test system: LOX IMVI melanoma
MDA-MB-435 = test system: MDA-MB-435
M14 melanoma = test system: M14 melanoma
UACC-257 melanoma = test system: UACC-257 melanoma
MALME-3M melanoma = test system: MALME-3M melanoma
NCI-H460 lung = test system: NCI-H460 lung
SK-MEL-2 melanoma = test system: SK-MEL-2 melanoma
OVCAR-3 ovarian = test system: OVCAR-3 ovarian
CAKI-1 renal = test system: CAKI-1 renal
EKVX NSCLC = test system: EKVX NSCLC
COLO 205 colon = test system: COLO 205 colon
HS 578T breast = test system: HS 578T breast
U251 CNS = test system: U251 CNS
A549 NSCLC = test system: A549 NSCLC
HCT-116 colon = test system: HCT-116 colon
PC-3 prostate = test system: PC-3 prostate
HCT-15 colon = test system: HCT-15 colon
BT-549 breast = test system: BT-549 breast
SK-OV-3 ovarian = test system: SK-OV-3 ovarian
NCI/ADR-RES ovarian = test system: NCI/ADR-RES ovarian
DU-145 prostate = test system: DU-145 prostate
OVCAR-8 ovarian = test system: OVCAR-8 ovarian
OVCAR-5 ovarian = test system: OVCAR-5 ovarian
786-0 renal = test system: 786-0 renal
KM12 colon = test system: KM12 colon
ACHN renal = test system: ACHN renal
TK-10 renal = test system: TK-10 renal
NCI-H23 lung = test system: NCI-H23 lung
SN12C renal = test system: SN12C renal
MDA-N = test system: MDA-N
HOP-92 NSCLC = test system: HOP-92 NSCLC
SF-268 CNS = test system: SF-268 CNS
MCF7 breast = test system: MCF7 breast
SNB-19 CNS = test system: SNB-19 CNS
NCI-H522 lung = test system: NCI-H522 lung
RPMI-8226 leukemia = test system: RPMI-8226 leukemia
OVCAR-4 ovarian = test system: OVCAR-4 ovarian
HT29 colon = test system: HT29 colon
SK-MEL-5 melanoma = test system: SK-MEL-5 melanoma
A498 renal = test system: A498 renal
MOLT-4 leukemia = test system: MOLT-4 leukemia
SR leukemia = test system: SR leukemia
SF-539 CNS = test system: SF-539 CNS
HOP-62 NSCLC = test system: HOP-62 NSCLC
SW-620 colon = test system: SW-620 colon
IGROV1 ovarian = test system: IGROV1 ovarian
MDA-MB-231 breast = test system: MDA-MB-231 breast
HCC-2998 colon = test system: HCC-2998 colon
T-47D breast = test system: T-47D breast
SNB-75 CNS = test system: SNB-75 CNS
RXF 393 renal = test system: RXF 393 renal
SK-MEL-28 melanoma = test system: SK-MEL-28 melanoma
K-562 leukemia = test system: K-562 leukemia
HL-60(TB) leukemia = test system: HL-60(TB) leukemia
NCI-H226 lung = test system: NCI-H226 lung

CC1OC(OC2C(CO)OC(O[C@H]3CC[C@@]4(C)C(=CC[C@H]5[C@@H]6C[C@@H]7O[C@](O)(CC[C@H](CO)COC8OC(CO)C(O)C(O)C8O)[C@@H](C)[C@@H]7[C@@]6(C)CC[C@@H]54)C3)C(OC3OC(C)C(O)C(O)C3O)C2O)C(O)C(O)C1O (stereo partly drawn)
TGI (UACC-62 melanoma): > 100 µM
TGI (CCRF-CEM leukemia): > 100 µM
TGI (UO-31 renal): > 100 µM
TGI (SF-295 CNS): > 100 µM
TGI (LOX IMVI melanoma): > 100 µM
TGI (MDA-MB-435): > 100 µM
TGI (M14 melanoma): > 100 µM
TGI (UACC-257 melanoma): > 100 µM
TGI (MALME-3M melanoma): > 100 µM
TGI (NCI-H460 lung): > 100 µM
TGI (SK-MEL-2 melanoma): > 100 µM
TGI (OVCAR-3 ovarian): > 100 µM
TGI (CAKI-1 renal): > 100 µM
TGI (EKVX NSCLC): > 100 µM
TGI (COLO 205 colon): > 100 µM
TGI (HS 578T breast): > 100 µM
TGI (U251 CNS): > 100 µM
TGI (A549 NSCLC): > 100 µM
TGI (HCT-116 colon): > 100 µM
TGI (PC-3 prostate): > 100 µM
TGI (HCT-15 colon): > 100 µM
TGI (BT-549 breast): > 100 µM
TGI (SK-OV-3 ovarian): > 100 µM
TGI (NCI/ADR-RES ovarian): > 100 µM
TGI (DU-145 prostate): > 100 µM
TGI (OVCAR-8 ovarian): > 100 µM
TGI (OVCAR-5 ovarian): > 100 µM
TGI (786-0 renal): > 100 µM
TGI (KM12 colon): > 100 µM
TGI (ACHN renal): > 100 µM
TGI (TK-10 renal): > 100 µM
TGI (NCI-H23 lung): > 100 µM
TGI (SN12C renal): > 100 µM
TGI (MDA-N): > 100 µM
TGI (HOP-92 NSCLC): > 100 µM
TGI (SF-268 CNS): > 100 µM
TGI (MCF7 breast): > 100 µM
TGI (SNB-19 CNS): > 100 µM
TGI (NCI-H522 lung): > 100 µM
TGI (RPMI-8226 leukemia): > 100 µM
TGI (OVCAR-4 ovarian): > 100 µM
TGI (HT29 colon): > 100 µM
TGI (SK-MEL-5 melanoma): > 100 µM
TGI (A498 renal): > 100 µM
TGI (MOLT-4 leukemia): > 100 µM
TGI (SR leukemia): > 100 µM
TGI (SF-539 CNS): > 100 µM
TGI (HOP-62 NSCLC): > 100 µM
TGI (SW-620 colon): > 100 µM
TGI (IGROV1 ovarian): > 100 µM
TGI (MDA-MB-231 breast): > 100 µM
TGI (HCC-2998 colon): > 100 µM
TGI (T-47D breast): > 100 µM
TGI (SNB-75 CNS): > 100 µM
TGI (RXF 393 renal): > 100 µM
TGI (SK-MEL-28 melanoma): > 100 µM
TGI (K-562 leukemia): > 100 µM

COC(=O)Cc1c(/C=C/C(C)(C)n2cnc(CCN3C(=O)CCC3=O)c2)[nH]c2ccccc12
TGI (UACC-62 melanoma): > 100 µM
TGI (CCRF-CEM leukemia): > 100 µM
TGI (UO-31 renal): > 100 µM
TGI (SF-295 CNS): > 100 µM
TGI (LOX IMVI melanoma): > 100 µM
TGI (MDA-MB-435): > 100 µM
TGI (M14 melanoma): > 100 µM
TGI (UACC-257 melanoma): > 100 µM
TGI (MALME-3M melanoma): 97.8 µM
TGI (NCI-H460 lung): > 100 µM
TGI (SK-MEL-2 melanoma): > 100 µM
TGI (OVCAR-3 ovarian): > 100 µM
TGI (CAKI-1 renal): > 100 µM
TGI (EKVX NSCLC): > 100 µM
TGI (COLO 205 colon): > 100 µM
TGI (HS 578T breast): 89.3 µM
TGI (U251 CNS): > 100 µM
TGI (A549 NSCLC): > 100 µM
TGI (HCT-116 colon): > 100 µM
TGI (PC-3 prostate): > 100 µM
TGI (HCT-15 colon): > 100 µM
TGI (BT-549 breast): > 100 µM
TGI (SK-OV-3 ovarian): > 100 µM
TGI (NCI/ADR-RES ovarian): > 100 µM
TGI (DU-145 prostate): > 100 µM
TGI (OVCAR-8 ovarian): > 100 µM
TGI (OVCAR-5 ovarian): > 100 µM
TGI (786-0 renal): > 100 µM
TGI (KM12 colon): > 100 µM
TGI (ACHN renal): > 100 µM
TGI (TK-10 renal): > 100 µM
TGI (NCI-H23 lung): > 100 µM
TGI (SN12C renal): > 100 µM
TGI (HL-60(TB) leukemia): > 100 µM
TGI (MDA-N): > 100 µM
TGI (HOP-92 NSCLC): > 100 µM
TGI (SF-268 CNS): > 100 µM
TGI (MCF7 breast): > 100 µM
TGI (SNB-19 CNS): > 100 µM
TGI (NCI-H522 lung): > 100 µM
TGI (OVCAR-4 ovarian): > 100 µM
TGI (HT29 colon): > 100 µM
TGI (SK-MEL-5 melanoma): > 100 µM
TGI (A498 renal): > 100 µM
TGI (MOLT-4 leukemia): > 100 µM
TGI (SR leukemia): > 100 µM
TGI (SF-539 CNS): > 100 µM
TGI (SW-620 colon): > 100 µM
TGI (IGROV1 ovarian): > 100 µM
TGI (MDA-MB-231 breast): > 100 µM
TGI (T-47D breast): 60.1 µM
TGI (SNB-75 CNS): > 100 µM
TGI (RXF 393 renal): > 100 µM
TGI (SK-MEL-28 melanoma): > 100 µM
TGI (K-562 leukemia): > 100 µM
TGI (NCI-H226 lung): > 100 µM
